According to patent US10689378B2, “Triazolopyridine compounds and uses thereof” (Novartis AG, priority 2016, dated 2020):
Read-outs that look alike come from different tables or passages of the source.

Legend:
[1] = test system: H3K27 methylation in G401 cell; assay: ELISA (H3K27 methylation) assay in G401 cells; assay type: cell-based, human; details: Homo sapiens
Experimental: Compounds of the present invention were assessed for their ability to inhibit PRC2 activity in a pentameric complex of EZH2, SUZ12, EED, Rbap48 and AEBP in biochemical assays. The ability of compounds of the present invention to inhibit cellular activity of PRC2 was assessed by analysing histone H3 lysine 27 methylation in human cell lines. The ability of compounds of the present invention to inhibit cancers was derived from their ability to modulate activity in human cancer cell lines bearing specific dependence to PRC2 activity to maintain cancerous growth.
ELISA (H3K27 Methylation) Assay
Representative compounds of the present invention were serially and separately diluted 3-fold in DMSO to obtain a total of eight or twelve concentrations. Then the compounds were added to G401 cell cultured in 384-well plate at 1:500 dilution to obtain the highest concentration of 20 μM. The cells were further cultured for 48 h before ELISA procedure.
Histone extraction: Cells, in 384-well plate, were washed with PBS (10×PBS buffer (80 g NaCl (Sigma, S3014), 2 g KCl (Sigma, 60128), 14.4 g Na2HPO4 (Sigma, S5136), 2.4 g KH2PO4 (Sigma, P9791) to 1 L water, pH to 7.4) and lysed with the addition of lysis buffer (0.4N HCl; 45 μL per well). The plate was gently agitated at 4° C. for 30 min. The cell lysate was neutralized with neutralization buffer (0.5 M sodium phosphate dibasic, pH 12.5, 1 mM DTT; 36 μL per well). The plate was agitated to ensure the lysates were well mixed prior to the ELISA protocol.
ELISA protocol: Cell lysates were transferred to the wells of a 384-well plate and the final volume was adjusted to 50 μL per well with PBS. The plate was sealed, centrifuged at 2,000 rpm for 2 min and incubated at 4° C. for about 16 h. The plate was washed with TBST buffer (1×TBS (10×TBS: 24.2 g Tris (Sigma, T6066), 80 g NaCl (Sigma, S3014) to 1 L of water and adjust pH to 7.6 with HCl) with 0.1% Tween-20). Blocking buffer (TBST, 5% BSA; 50 μL per well) was added and the plate was incubated for 1 h at rt. The blocking buffer was removed and primary antibody was added (30 μL per well). The following dilutions were performed with blocking buffer: for anti-H3K27me3 antibody (Cell Signaling Technology, #9733), dilution was 1:1000; for anti-H3K27me2 antibody (Cell Signaling Technology, #9288), dilution was 1:100; for anti-H3 antibody (Abcam, Cat #24834), dilution was 1:1000. The primary antibody was incubated in the plate at rt for 1 h. The wells were washed with TBST and incubated with secondary antibody for 1 h at rt. For secondary antibodies, the following dilutions were carried out with blocking buffer: anti-rabbit antibody (Jackson ImmunoResearch, #111-035-003), dilution was 1:2000; and anti-mouse antibody (Cell signaling technology, #7076), dilution was 1:1000. After 1 h of incubation at rt, the wells were washed with TBST. ECL substrate (Pierce, #34080) was added at 30 μL per well and the plates were centrifuged at 2,000 rpm for 2 min. The signal was read using a PerkinElmer Envision Reader. The H3K27 methylation readouts were normalized using H3 signal and then percentage inhibition was calculated against the samples treated with DMSO. The data were then fit to a dose response curve using the program Helios to get the IC50 values of the test compound.

EED (1-441)-His protein = molecular target: T1, EED (1-441)-His protein (Homo sapiens, UniProt O75530); assay: EED-H3K27Me3 peptide competition binding assay by AlphaScreen
T1 construct: 30 nM EED (1-441)-His protein
T1 sequence (O75530 whole entry): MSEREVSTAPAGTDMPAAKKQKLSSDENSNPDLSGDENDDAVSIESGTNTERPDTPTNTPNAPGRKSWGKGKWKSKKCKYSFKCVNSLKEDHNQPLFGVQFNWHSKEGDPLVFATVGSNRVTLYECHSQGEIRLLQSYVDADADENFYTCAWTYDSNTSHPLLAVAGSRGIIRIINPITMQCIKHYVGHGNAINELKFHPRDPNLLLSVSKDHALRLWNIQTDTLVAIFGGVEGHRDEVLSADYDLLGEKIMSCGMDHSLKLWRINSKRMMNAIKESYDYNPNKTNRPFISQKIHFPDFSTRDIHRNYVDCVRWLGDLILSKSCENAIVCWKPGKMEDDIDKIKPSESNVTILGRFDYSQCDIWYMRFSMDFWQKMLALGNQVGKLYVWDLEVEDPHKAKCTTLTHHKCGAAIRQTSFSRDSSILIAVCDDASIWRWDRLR
Experimental: EED-H3K27Me3 Peptide Competition Binding Assay by AlphaScreen (α-Screen)
To assess the compounds' potency in the EED-H3K27Me3 competition binding assay, compounds were serially diluted 3-fold in DMSO to obtain a total of twelve concentrations. Then compounds at each concentration (75 nL of each) were transferred by Mosquito into a 384-well Perkin Elmer ProxiPlate 384 plus plates. 8 uL of solutions containing 30 nM EED (1-441)-His protein and 15 nM biotin-H3K27Me3 (19-33) peptide in the buffer (25 mM HEPES, pH 8, 0.02% Tween-20, 0.5% BSA) were added to the wells and then incubated with compound for 20 min. AlphaScreen detection beads mix was prepared immediately before use by mixing nickel chelate acceptor beads and streptavidin donor beads in a 1:1 ratio (Perkin Elmer, Product No. 6760619C/M/R) into the buffer described above. Then 4 μL of detection beads mix was added to the plate and incubate in the dark at the rt for 1 h. The final concentration of donor and acceptor beads was 10 μg/mL for each. Plates were read on EnVision (PerkinElmer) using the AlphaScreen setting adapted for optimal signal detection with a 615 nm filter, after sample excitation at 680 nm. The emission signal at 615 nm was used to quantify compounds inhibition. AlphaScreen signals were normalized based on the reading coming from the positive (maximum signal control) and negative controls (minimum signal control) to give percentage of activities left. The data were then fit to a dose response equation using the program Helios (Novartis) to get the IC50 values. Helios is a Novartis in-house assay data analysis software using the methods described by Normolle, D. P., Statistics in Medicine, 12:2025-2042 (1993); Formenko, I. et al, Computer Methods and Programs in Biomedicine, 82, 31-37 (2006); Sebaugh, J. L., Pharmaceutical Statistics, 10:128-134 (2011); Kelly, C. et al., Biometrics, 46(4):1071-1085 (1990); and Kahm, M. et al., Journal of Statistical Software, 33 (7): (2010) (grofit: Fitting Biological Growth Curves with R, pages 1-21, available at http://www.jstatsoft.org/).

[2] = G-401, read-out: (c) IC50, ELISA Qualified
[3] = read-out: (a) IC50, EED Alphascreen binding Qualified
[4] = G-401, H3K27 methylation ELISA, read-out: (c) IC50 ELISA Qualified
[5] = EED-H3K27Me3 peptide competition, AlphaScreen, read-out: (a) IC50 EED Alphascreen binding Qualified

Row | IC50 [1, 2] | IC50 (EED (1-441)-His protein; [3]) | IC50 [1, 4] | IC50 (EED (1-441)-His protein; [5]) | Structure (SMILES)
1 | 529 nM | 218 nM | – | – | COc1c(F)cccc1CNc1ccc(-c2ccc(CN(C)C)cc2)c2nncn12 [Example 86, 8-(4-((dimethylamino)methyl)phenyl)-N-(3-fluoro-2-methoxybenzyl)-[1,2,4] triazolo[4,3-a]pyridin-5-amine]
2 | – | – | 71.6 nM | 71.6 nM | COc1cc(C)c(-c2ccc(NCc3c(F)cc(F)cc3OC)n3cnnc23)cn1 [Example 318, N-(2,4-difluoro-6-methoxybenzyl)-8-(6-methoxy-4-methylpyridin-3-yl)-[1,2,4] triazolo[4,3-a]pyridin-5-amine]
3 | 118 nM | 125 nM | – | – | COc1cccc(F)c1CNc1ccc(-c2cnn(CCO)c2)c2nncn12 [Example 145, 2-(4-(5-((2-fluoro-6-methoxybenzyl)amino)-[1,2,4]triazolo[4,3-a]pyridin-8-yl)-1H-pyrazol-1-yl)ethanol]
4 | 538 nM | 177 nM | – | – | COc1cc(F)ccc1CNc1ccc(-c2ccc(S(C)(=O)=O)nc2)c2nncn12 [Example 134, N-(4-fluoro-2-methoxybenzyl)-8-(6-(methylsulfonyl)pyridin-3-yl)-[1,2,4]triazolo[4,3-a] pyridin-5-amine]
5 | 159 nM | 127 nM | – | – | COc1cncc(-c2ccc(NCc3ccccc3OC)n3cnnc23)c1 [Example 51, N-(2-methoxybenzyl)-8-(5-methoxypyridin-3-yl)-[1,2,4] triazolo[4,3-a]pyridin-5-amine]
6 | 779 nM | 224 nM | – | – | COc1ccccc1CNc1ccc(-c2ccc(NC(C)=O)cc2)c2nncn12 [Example 80, N-(4-(5-((2-methoxybenzyl)amino)-[1,2,4]triazolo[4,3-a]pyridin-8-yl)phenyl) acetamide]
7 | – | – | 761 nM | 263 nM | CCc1ccccc1-c1ccc(NCc2c(F)cccc2OC)n2cnnc12 [Example 254, 8-(2-ethylphenyl)-N-(2-fluoro-6-methoxybenzyl)-[1,2,4]triazolo[4,3-a]pyridin-5-amine]

Further lines, the molecule ahead of its results:

Row | Structure (SMILES) | IC50 [1, 2] | IC50 (EED (1-441)-His protein; [3]) | IC50 [1, 4] | IC50 (EED (1-441)-His protein; [5])
8 | CN(C)Cc1ccc(-c2ccc(NCc3cccnc3)n3cnnc23)cc1 [Example 48, 8-(4-((dimethylamino)methyl)phenyl)-N-(pyridin-3-ylmethyl)-[1,2,4]triazolo[4,3-a]pyridin-5-amine] | 2280 nM | 4230 nM | – | –
9 | COc1cccc(F)c1CNc1c(F)cc(-c2cccnc2C)c2nncn12 [Example 311, 6-fluoro-N-(2-fluoro-6-methoxybenzyl)-4-(2-methylpyridin-3-yl)-[1,2,4] triazolo[4,3-a]pyridin-7-amine] | – | – | 833 nM | 420 nM
10 | COc1cccc(F)c1CNc1ccc(-c2ccc(Cl)cc2Cl)c2nncn12 [Example 224, 8-(2,4-dichlorophenyl)-N-(2-fluoro-6-methoxybenzyl)-[1,2,4]triazolo[4,3-a]pyridin-5-amine] | – | – | 220 nM | 137 nM
11 | COc1cccc(F)c1CNc1ccc(-c2cncc(C(C)O)c2)c2nncn12 (stereo not drawn) [Example 197, 1-(5-(5-((2-fluoro-6-methoxybenzyl)amino)-[1,2,4]triazolo[4,3-a]pyridin-8-yl)pyridin-3-yl)ethanol] | – | – | 161 nM | 414 nM
12 | COc1cccc(F)c1CNc1ccc(-c2cncc(OCCS(C)(=O)=O)c2)c2nncn12 [Example 204, N-(2-fluoro-6-methoxybenzyl)-8-(5-(2-(methylsulfonyl)ethoxy)pyridin-3-yl)-[1,2,4]triazolo[4,3-a] pyridin-5-amine] | – | – | 95.8 nM | 143 nM
13 | CN(C)Cc1ccc(-c2ccc(NCc3cccc(F)c3)n3cnnc23)cc1 [Example 35, 8-(4-((dimethylamino)methyl)phenyl)-N-(3-fluorobenzyl)-[1,2,4] triazolo [4,3-a]pyridin-5-amine] | 3490 nM | 2570 nM | – | –
14 | COc1cc(F)ccc1CNc1ccc(-c2ccc(NS(C)(=O)=O)cc2)c2nncn12 [Example 85, N-(4-(5-((4-fluoro-2-methoxybenzyl)amino)-[1,2,4]triazolo[4,3-a]pyridin-8-yl)phenyl)methane sulfonamide] | 1030 nM | 186 nM | – | –
15 | COc1ccccc1CNc1ccc(-c2cncc(S(C)(=O)=O)c2)c2nncn12 [Example 95, N-(2-methoxybenzyl)-8-(5-(methylsulfonyl)pyridin-3-yl)-[1,2,4]triazolo[4,3-a] pyridin-5-amine] | 164 nM | 177 nM | – | –
16 | COc1cc(F)cc(F)c1CNc1c(F)cc(-c2cnc(C)nc2C)c2nncn12 [Example 321, N-(2,4-difluoro-6-methoxybenzyl)-8-(2,4-dimethylpyrimidin-5-yl)-6-fluoro-[1,2,4]triazolo[4,3-a]pyridin-5-amine] | – | – | 1530 nM | 2660 nM
17 | COc1cc(F)ccc1CNc1ccc(-c2ccc(N3CCN(C(C)C)CC3)nc2)c2nncn12 [Example 88, N-(4-fluoro-2-methoxybenzyl)-8-(6-(4-isopropylpiperazin-1-yl)pyridin-3-yl)-[1,2,4] triazolo[4,3-a]pyridin-5-amine] | 500 nM | 178 nM | – | –
18 | COc1cccc(F)c1CNc1ccc(-c2ccccc2C(C)C)c2nncn12 [Example 257, N-(2-fluoro-6-methoxybenzyl)-8-(2-isopropylphenyl)-[1,2,4]triazolo[4,3-a] pyridin-5-amine] | – | – | ≥ 62500 nM | 906 nM
19 | COc1ccc(F)c(CNc2ccc(-c3cccnc3)c3nncn23)c1 [Example 121, N-(2-fluoro-5-methoxybenzyl)-8-(pyridin-3-yl)-[1,2,4]triazolo[4,3-a]pyridin-5-amine] | 299 nM | 680 nM | – | –
20 | COc1cc(F)cc(CNc2ccc(-c3ccc(CN(C)C)cc3)c3nncn23)c1 [Example 171, 8-(4-((dimethylamino)methyl)phenyl)-N-(3-fluoro-5-methoxybenzyl)-[1,2,4]triazolo[4,3-a]pyridin-5-amine] | 1100 nM | 839 nM | – | –
21 | COc1ccccc1CNc1ccc(-c2ccccc2C)c2nncn12 [Example 46, N-(2-methoxybenzyl)-8-(o-tolyl)-[1,2,4]triazolo[4,3-a] pyridin-5-amine] | 529 nM | 160 nM | – | –
